Results from PMC6320962, “Synthesis, Experimental and Density Functional Theory (DFT) Studies on Solubility of Camptothecin Derivatives” (Molecules, 2018).

Legend:
[1] = system: wild-type HIV-1; parameters: method as in PMID 21344906; settings: cited from earlier work
[2] = in words; cited from earlier work
[3] = clinical trial, early 1970s; cited from earlier work

CC[C@@]1(O)C(=O)OCc2c1cc1n(c2=O)Cc2c-1nc1ccc(N3CCOCC3)cc1c2C [P211, 7-Methyl-10-morpholino-20(S)-camptothecin]
melting point: 283 to 285 °C

Cc1cc(/C=C/C#N)cc(C)c1Nc1ccnc(Nc2ccc(C#N)cc2)n1 [rilpivirine]
EC50 [1]: 670 pM

CC[C@@]1(O)C(=O)OCc2c1cc1n(c2=O)Cc2cc3ccccc3nc2-1 [CPT, Camptothecin]
water solubility [2]: negligible water solubility

CC[C@@](O)(C(=O)[O-])c1cc2n(c(=O)c1CO)Cc1cc3ccccc3nc1-2.[Na+] [compound 15]
efficacy [3]: low efficacy | side effects [3]: unpredictable and severe side effects, including hemorrhagic cystitis and myelotoxicity

CC[C@@]1(O)C(=O)OCc2c1cc1n(c2=O)Cc2c-1nc1ccc(C3CCCCC3)cc1c2C [P210, 10-Cyclohexyl-7-methyl-20(S)-camptothecin]
melting point: 243 to 245 °C
